We go through 5 compounds from US20260271931A1, “HERBICIDAL MIXTURES” (Bayer Aktiengesellschaft, priority 2023, published 2026).

Common to all, as to type: in vivo
The subject of one test is Kochia scoparia (KCHSC). Kind of test: Post-emergence action against weeds, greenhouse pot test, visual rating: Kochia scoparia.
For another test, the system named is Eleusine indica (ELEIN). Kind of test: Post-emergence action against weeds, greenhouse pot test, visual rating: Eleusine indica. The conditions noted are these: for pest or weed control at 0.4 g/ha: 0.4 g a.i./ha; for pest or weed control at 3 g/ha: 3 g a.i./ha. As for the experimental part: (§1) When the observed efficacies already exceed the formal sum total of the values of the tests with individual applications, they also exceed the expected value according to Colby, which is calculated using the formula below and is likewise regarded as an indication of synergism (cf. S. R. Colby; in Weeds 15 (1967) pp. 20 to 22):
(§2) where: • A=efficacy of the active ingredient (A) in % at an application rate of a [g a.i./ha]; • B=efficacy of the active ingredient (B) in % at an application rate of b [g a.i./ha]; • E^C=expected value of the effect of the combination (A)+(B) in % at the combined application rate a+b [g a.i./ha].
(§3) The observed values (E^A) from the experiments, given suitable low dosages, show an effect of the combinations exceeding the expected values according to Colby (E^C) (Δ).
(§4) Seeds of mono- and dicotyledonous weeds were placed in sandy loam in pots, covered with soil and grown in a greenhouse under good growth conditions (temperature, air humidity, water supply). Two to three weeks after sowing, the test plants were treated at the two- to four-leaf stage with the compositions of the invention. The compositions of the invention, formulated as spray powders or as emulsion concentrates, were sprayed onto the green parts of the plant in various dosages with an application rate equivalent to […] of water. After the test plants had been kept in the greenhouse under optimum growth conditions for 3 weeks, the activity of the preparations was rated visually in comparison to untreated controls.
(§5) 100% efficacy means complete control of the particular weed tested.
(§6) 0% efficacy means zero control of the particular weed tested.
(§7) Expected values according to Colby are reported under E.
(§8) The exceedance of the expected value E is given as Δ (=synergistic effect).
(§9) The rating period is reported in days after application (DAT).

Test [1] has as its system Centaurea cyanus (CENCY). Kind of test: Post-emergence action against weeds, greenhouse pot test, visual rating: Centaurea cyanus. The conditions noted are these: 240 h, read-out: Herbicidal effect [%] on CENCY 10 DAT.
A further test relates to Bidens pilosa (BIDPI). Put plainly: Post-emergence action against weeds, greenhouse pot test, visual rating: Bidens pilosa.
The subject of test [2] is Centaurea cyanus (CENCY). Kind of test: Post-emergence action against weeds, greenhouse pot test, visual rating: Centaurea cyanus. As for the experimental part: as §1, §2, §3, §4, §5, §6, §7, §8, §9
The subject of test [3] is Sorghum halepense (SORHA). Put plainly: Post-emergence action against weeds, greenhouse pot test, visual rating: Sorghum halepense. As for the experimental part: as §1, §2, §3, §4, §5, §6, §7, §8, §9
In the next test the test system is Lolium rigidum (LOLRI). Put plainly: Post-emergence action against weeds, greenhouse pot test, visual rating: Lolium rigidum.
Test [4] has as its system Brachiaria platyfylla (BRAPP). Kind of test: Post-emergence action against weeds, greenhouse pot test, visual rating: Brachiaria platyfylla. The conditions noted are these: for pest or weed control at 0.4 g/ha / pest or weed control at 3 g/ha: post-emergence; for pest or weed control at 0.4 g/ha: 0.4 g a.i./ha; for pest or weed control at 3 g/ha: 3 g a.i./ha. The protocol: as §1, §2, §3, §4, §5, §6, §7, §8, §9

The test system of test [5] is Pharbitis purpurea (PHBPU). Kind of test: Post-emergence action against weeds, greenhouse pot test, visual rating: Pharbitis purpurea. The conditions noted are these: 21 DAT. The protocol: as §1, §2, §3, §4, §5, §6, §7, §8, §9
The subject of another test is Avena fatua (AVEFA). Kind of test: Post-emergence action against weeds, greenhouse pot test, visual rating: Avena fatua. The conditions noted are these: 10 DAT.
In test [6] the test system is Echinochloa crus-galli (ECHCG). Put plainly: Post-emergence action against weeds, greenhouse pot test, visual rating: Echinochloa crus-galli. The conditions noted are these: 50 g a.i./ha.
Where [7] appears, read: Eleusine indica, post-emergence, 504 h, read-out: Herbicidal effect [%] on ELEIN 21 DAT.
[8] abbreviates: Eleusine indica, post-emergence, 240 h, read-out: Herbicidal effect [%] on ELEIN 10 DAT.
[9] abbreviates: 240 h, read-out: Herbicidal effect [%] on BRAPP 10 DAT.
The mark [10] stands for this setting: 504 h, read-out: Herbicidal effect [%] on BRAPP 21 DAT.

Read-outs that look alike come from different tables or passages of the source.

As for `CCC(CC)Nc1c([N+](=O)[O-])cc(C)c(C)c1[N+](=O)[O-]` [Pendimethalin, pendimethalin], the pest or weed control at 100 g/ha in the test with Kochia scoparia (KCHSC) (Bassia scoparia, post-emergence, 504 h, 100 g a.i./ha, read-out: Herbicidal effect [%] on KCHSC 21 DAT) came out at 10%; in the test on Eleusine indica (ELEIN) (Eleusine indica, post-emergence, 504 h, 100 g a.i./ha, read-out: Herbicidal effect [%] on ELEIN 21 DAT), 0%; in the test on Centaurea cyanus (CENCY) [1] (100 g a.i./ha) it was 0%.

Regarding `CCOC(=O)COc1cc(-c2nn(C)c(OC(F)F)c2Cl)c(F)cc1Cl` [Pyraflufen-ethyl, pyraflufen-ethyl], in the test with Bidens pilosa (BIDPI) (7.5 g a.i./ha), the “Herbicidal effect [%] on BIDPI 10 DAT” value worked out at 88% and the “Herbicidal effect [%] on BIDPI 21 DAT” value is given as 80%. For the same compound, the pest or weed control at […] with Eleusine indica (ELEIN) (setting [7]) came to 0%. Besides, in the test with Centaurea cyanus (CENCY) [2] (7.5 g a.i./ha), the “Herbicidal effect [%] on CENCY 21 DAT” value is reported as 88%. Further, the pest or weed control at […] with Centaurea cyanus (CENCY) [1] came out at 88%. Also, in test [3] (7.5 g a.i./ha), the “Herbicidal effect [%] on SORHA 21 DAT” value is on record as 10%.

With `CCc1cccc(C)c1N(C(=O)CCl)[C@@H](C)COC` [S-Metolachlor, S-metolachlor], in the test with Lolium rigidum (LOLRI) (50 g a.i./ha, 21 DAT), the “Herbicidal effect [%] on LOLRI 21 DAT” value is recorded as 0%. In addition, the “Herbicidal effect [%] on KCHSC 21 DAT” value in the test with Kochia scoparia (KCHSC) (50 g a.i./ha) was found to be 10%. In addition, the “Herbicidal effect [%] on BIDPI 21 DAT” value in the test on Bidens pilosa (BIDPI) (50 g a.i./ha) is given as 20%. Also, in the test with Eleusine indica (ELEIN) (50 g a.i./ha), the “Herbicidal effect [%] on ELEIN 10 DAT” value is given as 10% and the “Herbicidal effect [%] on ELEIN 21 DAT” value was determined as 10%. Besides, in the test on Centaurea cyanus (CENCY) [2] (50 g a.i./ha), the “Herbicidal effect [%] on CENCY 10 DAT” value was 0% and the “Herbicidal effect [%] on CENCY 21 DAT” value is recorded as 10%. Further, in test [4] (50 g a.i./ha), the “Herbicidal effect [%] on BRAPP 10 DAT” value is recorded as 30% and the “Herbicidal effect [%] on BRAPP 21 DAT” value was determined as 30%. For the same compound, in test [5] (50 g a.i./ha), the “Herbicidal effect [%] on PHBPU 21 DAT” value was 10%. In test [3] (50 g a.i./ha), the “Herbicidal effect [%] on SORHA 10 DAT” value was 10% and the “Herbicidal effect [%] on SORHA 21 DAT” value is given as 10%. The “Herbicidal effect [%] on AVEFA 10 DAT” value with Avena fatua (AVEFA) (50 g a.i./ha) was 10%. The “Herbicidal effect [%] on ECHCG 21 DAT” value in test [6] turned out to be 30%.

In the case of `CC(C)N(C)S(=O)(=O)NC(=O)c1cc(-n2c(=O)cc(C(F)(F)F)n(C)c2=O)c(F)cc1Cl` [Saflufenacil, saflufenacil], the “Herbicidal effect [%] on LOLRI 10 DAT” value with Lolium rigidum (LOLRI) (0.4 g a.i./ha, 10 DAT) was 10%. Besides, the pest or weed control at 0.4 g/ha with Lolium rigidum (LOLRI) (Lolium rigidum, 504 h, 0.4 g a.i./ha, 21 DAT, read-out: Herbicidal effect [%] on LOLRI 21 DAT) is 0%; in the test with Kochia scoparia (KCHSC) (Bassia scoparia, post-emergence, 504 h, 0.4 g a.i./ha, read-out: Herbicidal effect [%] on KCHSC 21 DAT) it was 10%; in the test with Eleusine indica (ELEIN) (setting [8]), 30%; with Eleusine indica (ELEIN) (setting [7]) it was 0%; in test [4] (setting [9]) it was 10%; in test [4] (setting [10]), 0%. Also, the pest or weed control at 0.4 g/ha in the test with Centaurea cyanus (CENCY) [1] (0.4 g a.i./ha) worked out at 40%; in the test with Avena fatua (AVEFA) (Avena fatua, 240 h, 0.4 g a.i./ha, read-out: Herbicidal effect [%] on AVEFA 10 DAT), 10%. In addition, in the test with Kochia scoparia (KCHSC) (0.4 g a.i./ha), the “Herbicidal effect [%] on KCHSC 10 DAT” value is 10%. Also, the “Herbicidal effect [%] on CENCY 21 DAT” value in the test on Centaurea cyanus (CENCY) [2] (0.4 g a.i./ha) was 30%. Further, the “Herbicidal effect [%] on PHBPU 21 DAT” value in [5] (0.4 g a.i./ha) is 80%.

Consider `CS(=O)(=O)c1ccc(C(=O)C2C(=O)CCCC2=O)c(Cl)c1COCC(F)(F)F` [Tembotrione, tembotrione], for which the pest or weed control at 3 g/ha was 20% with Lolium rigidum (LOLRI) (Lolium rigidum, 504 h, 3 g a.i./ha, 21 DAT, read-out: Herbicidal effect [%] on LOLRI 21 DAT); 10% with Kochia scoparia (KCHSC) (Bassia scoparia, post-emergence, 504 h, 3 g a.i./ha, read-out: Herbicidal effect [%] on KCHSC 21 DAT); 60% with Eleusine indica (ELEIN) (setting [8]); 40% with Eleusine indica (ELEIN) (setting [7]); 40% in test [4] (setting [9]); 20% in test [4] (setting [10]). In addition, the pest or weed control at 3 g/ha with Centaurea cyanus (CENCY) [1] (3 g a.i./ha) amounted to 40%. The “Herbicidal effect [%] on KCHSC 10 DAT” value in the test on Kochia scoparia (KCHSC) (3 g a.i./ha) is on record as 20%. The “Herbicidal effect [%] on BIDPI 21 DAT” value with Bidens pilosa (BIDPI) (3 g a.i./ha) was found to be 30%. For the same compound, the “Herbicidal effect [%] on CENCY 21 DAT” value in the test with Centaurea cyanus (CENCY) [2] (3 g a.i./ha) is reported as 30%. Besides, the “Herbicidal effect [%] on PHBPU 21 DAT” value in test [5] (3 g a.i./ha) turned out to be 30%. Moreover, the “Herbicidal effect [%] on SORHA 10 DAT” value in test [3] (3 g a.i./ha) came to 80%. In test [3] (3 g a.i./ha), the “Herbicidal effect [%] on SORHA 21 DAT” value turned out to be 20%.
